Source: patent publication US20230115176A1 (Ra Pharmaceuticals, Inc., priority 2019, published 2023)
Read-outs that look alike come from different tables or passages of the source.

Key:
Human C5 = target: T1, Human C5 (Homo sapiens, UniProt P01031); test: Surface plasmon resonance (SPR), immobilized human C5 (Example 9, Table 18); type: binding
T1 construct: purchased Complement Technology
From the text: Morrison and Boyd in “Organic Chemistry”, 6th edition, Prentice Hall (1992)] and validated for proper structure by mass spectrometry.

purified human C5 = purified human C5 (Homo sapiens, UniProt P01031); test: Red blood cell (RBC) hemolysis assay, optical, absorbance 412 nm (Example 10, Table 19); type: cell-based; details: antibody-sensitized sheep erythrocytes, […] human C5 depleted sera
Sequence of purified human C5 (P01031 19-1676): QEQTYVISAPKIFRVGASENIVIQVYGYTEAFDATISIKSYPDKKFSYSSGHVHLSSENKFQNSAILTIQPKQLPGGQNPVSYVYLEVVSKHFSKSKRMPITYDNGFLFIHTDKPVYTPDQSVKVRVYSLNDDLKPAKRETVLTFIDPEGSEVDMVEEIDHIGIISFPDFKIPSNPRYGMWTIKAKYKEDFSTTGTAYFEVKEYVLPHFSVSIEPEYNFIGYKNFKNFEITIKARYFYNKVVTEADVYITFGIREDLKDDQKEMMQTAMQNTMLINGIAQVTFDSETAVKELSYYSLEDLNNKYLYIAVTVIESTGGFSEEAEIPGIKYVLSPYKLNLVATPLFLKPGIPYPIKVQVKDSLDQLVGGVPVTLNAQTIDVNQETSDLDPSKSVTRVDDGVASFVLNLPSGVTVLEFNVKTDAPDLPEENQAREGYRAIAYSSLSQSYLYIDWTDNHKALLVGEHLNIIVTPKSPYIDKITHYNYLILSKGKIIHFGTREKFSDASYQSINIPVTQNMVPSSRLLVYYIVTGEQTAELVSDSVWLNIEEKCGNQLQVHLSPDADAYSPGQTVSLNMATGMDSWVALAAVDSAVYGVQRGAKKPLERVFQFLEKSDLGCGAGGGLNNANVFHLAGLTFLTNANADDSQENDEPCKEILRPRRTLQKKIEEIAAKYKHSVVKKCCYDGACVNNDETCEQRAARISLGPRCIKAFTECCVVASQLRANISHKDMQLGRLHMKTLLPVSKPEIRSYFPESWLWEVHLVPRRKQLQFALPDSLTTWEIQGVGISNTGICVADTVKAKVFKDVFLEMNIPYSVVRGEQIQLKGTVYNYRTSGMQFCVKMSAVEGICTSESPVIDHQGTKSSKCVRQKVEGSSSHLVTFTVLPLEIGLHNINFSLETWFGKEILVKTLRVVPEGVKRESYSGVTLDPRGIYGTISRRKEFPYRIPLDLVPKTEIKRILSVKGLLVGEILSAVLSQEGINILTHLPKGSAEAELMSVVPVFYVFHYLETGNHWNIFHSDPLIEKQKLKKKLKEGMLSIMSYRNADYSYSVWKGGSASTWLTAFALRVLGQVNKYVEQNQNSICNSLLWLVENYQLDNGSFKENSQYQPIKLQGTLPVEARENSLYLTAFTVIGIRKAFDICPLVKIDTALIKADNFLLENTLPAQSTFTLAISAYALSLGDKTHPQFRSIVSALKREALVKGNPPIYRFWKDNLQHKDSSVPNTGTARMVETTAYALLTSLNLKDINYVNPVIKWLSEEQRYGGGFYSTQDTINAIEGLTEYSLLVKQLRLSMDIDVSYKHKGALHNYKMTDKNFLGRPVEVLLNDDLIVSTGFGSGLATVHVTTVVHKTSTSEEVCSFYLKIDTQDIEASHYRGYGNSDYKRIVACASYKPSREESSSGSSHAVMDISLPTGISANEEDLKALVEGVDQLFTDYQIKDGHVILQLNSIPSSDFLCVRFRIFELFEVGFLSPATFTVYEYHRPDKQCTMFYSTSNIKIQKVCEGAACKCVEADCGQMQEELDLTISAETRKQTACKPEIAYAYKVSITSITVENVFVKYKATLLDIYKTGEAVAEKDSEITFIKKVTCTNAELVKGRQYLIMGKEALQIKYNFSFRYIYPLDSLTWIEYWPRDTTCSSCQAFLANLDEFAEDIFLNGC

[1] = immobilized human C5, equilibrium dissociation constant, read-out: SPR C5 EQ KD
[2] = 0.5 nM purified human C5, absorbance 412 nm, read-out: RBC Hemolysis IC50
[3] = SPR, human C5 immobilized, read-out: equilibrium dissociation constant for interaction with C5
[4] = 0.5 nM human C5, read-out: IC50

T1 sequence (P01031 19-1676): as above

| Compound | Kd (Human C5; [1]) [nM] | Kd (Human C5; [3]) [nM] | IC50 (purified human C5; [2]) [nM] | IC50 (purified human C5; [4]) [nM] |
| --- | --- | --- | --- | --- |
| COc1cccc(C2CCCN2C(=O)Nc2ccc(OC)c(OCCCC(C)C)c2)c1 (stereo not shown) [Compound C5INH-0388] | 970 |  | 970 |  |
| COc1ccc(NC(=O)N[C@@H](CO)c2ccccc2O)cc1OCCCC(C)C [Compound C5INH-0395] | 9 | < 20 | 13.6 | < 20 |
| COc1ccc(NC(=O)N2CCCC2c2ccc(N(C)C)cc2)cc1OCCCC(C)C (stereo not shown) [Compound C5INH-0396] | 1400 |  | 2330 |  |
| COC(=O)c1cc(OC)c(OCCCC(C)C)cc1NC(=O)N[C@@H](CO)c1ccccc1 [Compound C5INH-0397] | 2060 |  | 1380 |  |
| COc1ccc(NC(=O)NCc2ccnc(N3CCCC(O)C3)c2)cc1OCCCC(C)C (stereo not shown) [Compound C5INH-0403] | 220 |  | 2990 |  |
| COc1ccc(NC(=O)N[C@H](CO)c2ccccc2)cc1C(F)C(F)CCC(C)C (stereo partly shown) [Compound C5INH-0406] | 760 |  | 683 |  |
| COc1ccc(NC(=O)NCc2ccc(N3CCN(C)CC3)cc2)cc1OCCCC(C)C [Compound C5INH-0420] | 800 |  | 403 |  |
| COc1ccc(NC(=O)NCc2ccc(CN3CCOCC3)cc2)cc1OCCCC(C)C [Compound C5INH-0421] | 1660 |  | 4590 |  |
| COc1cc(CC(N)=O)c(NC(=O)N[C@@H](CO)c2ccccc2)cc1OCCCC(C)C [Compound C5INH-0422] | 1340 |  | 1370 |  |
| CC(C)CCCOc1cc(NC(=O)N[C@@H](CO)c2ccccc2)ccc1N [Compound C5INH-0431] | 1160 |  | 3790 |  |
| COc1ccc(NC(=O)N[C@@H](CO)c2ccccc2)cc1C(F)CCCC(C)C (stereo partly shown) [Compound C5INH-0432] | 530 |  | 417 |  |
| COc1ccc(NC(=O)N(CCN2CCOCC2)Cc2cccc3c2ccn3CCN2CCOCC2)cc1OCCCC(C)C [Compound C5INH-0438] | 2780 |  | 3000 |  |
| COc1cc(CC(=O)N(C)C)c(NC(=O)N[C@@H](CO)c2ccccc2)cc1OCCCC(C)C [Compound C5INH-0440] | 7600 |  | 3160 |  |
| CNc1ccc(CNC(=O)Nc2ccc(OC)c(OCCCC(C)C)c2)cc1 [Compound C5INH-0443] | 300 |  | 1990 |  |
| COc1ccc(NC(=O)NCc2ccc(N(C)CC(N)=O)cc2)cc1OCCCC(C)C [Compound C5INH-0446] | 184 |  | 2710 |  |
| COc1ccc(NC(=O)NCc2ccc3c(N)n[nH]c3c2)cc1OCCCC(C)C [Compound C5INH-0458] | 225 |  | 416 |  |
| COc1ccc(NC(=O)NCc2ccc(Cn3ccnc3)cc2)cc1OCCCC(C)C [Compound C5INH-0460] | 578 |  | 725 |  |
| COc1ccc(NC(=O)NC(CO)c2cccc3c2ccn3C)cc1OCCCC(C)C (stereo not shown) [Compound C5INH-0463] | 280 |  | 808 |  |
| COc1ccc(NC(=O)NC(CO)c2ccccc2)cc1COCCC(C)C (stereo not shown) [Compound C5INH-0477] | 1130 |  | 1460 |  |
| COc1ccc(NC(=O)NC(CO)c2cccc(OC)c2O)cc1OCCCC(C)C (stereo not shown) [Compound C5INH-0486] | 25 |  |  | 3 |
| COc1ccc(NC(=O)NC(CO)c2cc(N)ccc2OC)cc1OCCCC(C)C (stereo not shown) [Compound C5INH-0488] | 100 |  | 12 | < 20 |
| COc1ccc(NC(=O)NC(CO)c2cc(NC(C)=O)ccc2OC)cc1OCCCC(C)C (stereo not shown) [Compound C5INH-0489] | 364 |  | 177 |  |
| COc1ccc(NC(=O)N(C)Cc2cccc3ccn(C)c23)cc1OCCCC(C)C [Compound C5INH-0492] | 2070 |  | 2650 |  |
| COc1ccc(NC(=O)NCc2cccc(NC(C)=O)c2)cc1OCCCC(C)C [Compound C5INH-0496] | 600 |  | 400 |  |
| CNc1cccc(CNC(=O)Nc2ccc(OC)c(OCCCC(C)C)c2)c1 [Compound C5INH-0497] | 1400 |  | 913 |  |
| COc1ccc(NC(=O)NCc2cccc3c2ncn3S(=O)(=O)c2ncc[nH]2)cc1OCCCC(C)C [Compound C5INH-0500] | 334 |  | 556 |  |
| COc1ccc(NC(=O)NC(C(=O)O)c2cccc(OC)c2O)cc1OCCCC(C)C (stereo not shown) [Compound C5INH-0501] | 330 |  | 468 |  |
| COCc1cccc(CNC(=O)Nc2ccc(OC)c(OCCCC(C)C)c2)c1 [Compound C5INH-0502] | 1910 |  | 3090 |  |
| COc1cc(CNC(C)=O)c(NC(=O)NCc2ccnc3[nH]ccc23)cc1OCCCC(C)C [Compound C5INH-0504] | 316 |  | 318 |  |

More lines, main results first:

| Kd (Human C5; [1]) [nM] | Kd (Human C5; [3]) [nM] | Compound | IC50 (purified human C5; [2]) [nM] | IC50 (purified human C5; [4]) [nM] |
| --- | --- | --- | --- | --- |
| 420 |  | COc1ccc(NC(=O)NCc2ccnc(NCCN(C)C)c2)cc1OCCCC(C)C [Compound C5INH-0389] | 1310 |  |
| 257 |  | COCCNc1cc(CNC(=O)Nc2ccc(OC)c(OCCCC(C)C)c2)ccn1 [Compound C5INH-0390] | 698 |  |
| 89 |  | COC(=O)CCn1ccc2c(CNC(=O)Nc3ccc(OC)c(OCCCC(C)C)c3)ccnc21 [Compound C5INH-0398] | 329 |  |
| 48 |  | COc1cnccc1CNC(=O)Nc1ccc(OC)c(OCCCC(C)C)c1 [Compound C5INH-0401] | 136 |  |
| 261 |  | COc1ccc(NC(=O)NCc2ccncc2OCCCN(C)C)cc1OCCCC(C)C [Compound C5INH-0402] | 1340 |  |
| 110 |  | COc1ccc(NC(=O)NCc2ccnc3c2ccn3CCNS(C)(=O)=O)cc1OCCCC(C)C [Compound C5INH-0409] | 477 |  |
| 840 |  | CCS(=O)(=O)NCCn1ccc2c(CNC(=O)Nc3ccc(OC)c(OCCCC(C)C)c3)ccnc21 [Compound C5INH-0410] | 568 |  |
| 500 |  | COc1ccc(NC(=O)NCc2ccc3c(ccn3CCN(C)C)c2)cc1OCCCC(C)C [Compound C5INH-0414] | 781 |  |
| 693 |  | COc1ccc(NC(=O)NCc2ncccc2OC)cc1OCCCC(C)C [Compound C5INH-0417] | 1130 |  |
| 530 |  | COc1ccc(NC(=O)NCc2ccc(N)nc2)cc1OCCCC(C)C [Compound C5INH-0428] | 3060 |  |
| 510 |  | COc1ccc(NC(=O)NCc2ccnc3c2ccn3C(C)=O)cc1OCCCC(C)C [Compound C5INH-0436] | 1700 |  |
| 37 |  | COc1ccc(NC(=O)NCc2cccc3c2ccn3CCN2CCOCC2)cc1OCCCC(C)C [Compound C5INH-0437] | 81.5 |  |
| 204 |  | COc1ccc(NC(=O)NCc2ccc3c(ccn3CC(=O)N(C)C)c2)cc1OCCCC(C)C [Compound C5INH-0447] | 536 |  |
| 885 |  | COc1ccc(NC(=O)NCc2cccc3cccnc23)cc1OCCCC(C)C [Compound C5INH-0450] | 298 |  |
| 59 |  | COc1ccc(NC(=O)NCc2ccnc(NCCN3CCOCC3)c2OC)cc1OCCCC(C)C [Compound C5INH-0452] | 95.5 |  |
| 25 |  | COc1ccc(NC(=O)NCc2ccnc(NCCN(C)C)c2OC)cc1OCCCC(C)C [Compound C5INH-0453] | 65.5 |  |
| 284 |  | COc1ccc(NC(=O)NCc2ccnc(N)c2OC)cc1OCCCC(C)C [Compound C5INH-0454] | 301 |  |

| Kd (Human C5; [1]) [nM] | Kd (Human C5; [3]) [nM] | Compound | IC50 (purified human C5; [2]) [nM] | IC50 (purified human C5; [4]) [nM] |
| --- | --- | --- | --- | --- |
| 29 |  | COc1ccc(NC(=O)NCc2cccc(OC)c2O)cc1OCCCC(C)C [Compound C5INH-0456] |  | 7 |
| 95 |  | COc1ccc(NC(=O)NCc2cccc(OCCN(C)C)c2)cc1OCCCC(C)C [Compound C5INH-0462] | 113 |  |
| 82 |  | COc1ccc(NC(=O)NCc2cccc(F)c2O)cc1OCCCC(C)C [Compound C5INH-0472] | 16 | < 20 |
| 69 |  | COc1ccc(NC(=O)NCc2cc(F)ccc2O)cc1OCCCC(C)C [Compound C5INH-0473] | 21.5 |  |
| 201 |  | COc1ccc(NC(=O)NCc2ccnc3c2ccn3CC2=NCCCN2)cc1OCCCC(C)C [Compound C5INH-0474] | 120 |  |
| 40 |  | COc1ccc(NC(=O)NCc2cccc(O)c2O)cc1OCCCC(C)C [Compound C5INH-0476] | 8.5 | < 20 |
| 770 |  | COc1ccc(F)cc1CNC(=O)Nc1ccc(OC)c(OCCCC(C)C)c1 [Compound C5INH-0484] | 150 |  |
| 330 |  | COc1ccc(CNC(=O)Nc2ccc(OC)c(OCCCC(C)C)c2)c(O)c1 [Compound C5INH-0485] | 46.9 |  |
| 278 |  | COc1ccc(NC(=O)NCc2ccnc3c2ccn3CCCN2CCCC2)cc1OCCCC(C)C [Compound C5INH-0490] | 144 |  |
| 62 |  | COc1ccc(NC(=O)NCc2ccnc3c2ccn3CCCN(C)C)cc1OCCCC(C)C [Compound C5INH-0491] | 83.5 |  |
| 1480 |  | COc1ccc(CNC(=O)Nc2ccc(OC)c(OCCCC(C)C)c2)cn1 [Compound C5INH-0498] | 4640 |  |
| 16 | < 20 | COc1ccc(NC(=O)NCc2cccc3c2ccn3CC(=O)N(C)C)cc1OCCCC(C)C [Compound C5INH-0516] | 127 |  |
| 10.7 | < 20 | COc1ccc(NC(=O)NCc2cc(F)cc3[nH]ccc23)cc1OCCCC(C)C [Compound C5INH-0517] | 369 |  |
| 14 | < 20 | COc1ccc(NC(=O)NCc2cccc3c2ccn3Cc2ccncc2)cc1OCCCC(C)C [Compound C5INH-0518] | 300 |  |
| 9.3 | < 20 | COc1ccc(NC(=O)NCc2cccc3c2ccn3CC2CCCN2C)cc1OCCCC(C)C (stereo not shown) [Compound C5INH-0519] | 96.7 |  |
| 27 |  | COc1ccc(NC(=O)NCc2cccc3c2ccn3CCCN(C)C)cc1OCCCC(C)C [Compound C5INH-0524] | 65 |  |
